{"source": "patent US20190119282A1", "about": "“IMIDAZOPYRIDAZINES USEFUL AS INHIBITORS OF THE PAR-2 SIGNALING PATHWAY” (Vertex Pharmaceuticals Incorporated, priority 2013, published 2019)", "key": {"[1]": {"tested_on": "Thrombin-stimulated Ca2+ response in HT-29 cells", "experiment": "Ca FLIPR TETRA assay, ANTAGONIST mode, stimulation with 1 U/mL Thrombin", "type": "cell-based, human", "settings": "Homo sapiens; HT-29 cells, antagonist mode, stimulation with 1 U/mL Thrombin", "outline": "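Antagonist-mode FLIPR Tetra Ca2+ readout: after 30 min r.t. compound pre-incubation, HT-29 cells are challenged with trypsin (3.1 U/mL final), SLIGKV (8 μM), thrombin (1 U/mL) or UTP (0.6 μM). Cells were plated overnight in 1% FBS medium and dye-loaded with Calcium 5; an initial read checks compound agonism.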"}, "[2]": {"experiment": "In vivo rat pharmacokinetics (intravenous and oral)", "settings": "plasma", "outline": "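Rats dosed by tail-vein bolus at 0.5–1 mg/kg in NMP-based solutions, or by oral gavage at 1–600 mg/kg as solution, suspension or spray-dried dispersion. Jugular blood in K3EDTA gave plasma or citrate-diluted whole blood; LC-MS/MS quantification, non-compartmental PK analysis.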"}, "TNBS-induced colitis": {"tested_on": "TNBS-induced colitis", "experiment": "Mouse TNBS-induced colitis model", "type": "in vivo, BALB/c mice", "settings": "mice", "experimental": "Male Sprague Dawley rats and BALB/c mice were housed in groups in a temperature controlled room and were acclimatized in the animal facility for at least three days prior to use. Experiments were performed during the light phase of the cycle. Animals have food and water ad libitum.\nExample 65: Mouse TNBS-Induced Colitis Model\nColitis was induced by intra-colonic administration of 1.5 mg of TNBS in 75 μl of 40% v/volume ethanol solution under isoflurane anesthesia at a depth of 4 cm from the anal verge. Mice were kept with their heads down for 30 additional seconds post administration to ensure distribution of TNBS. Disease activity scores were assessed for a period of 5 days starting prior to TNBS injection (baseline reading). […] Test compounds or vehicle (0.5% MC/0.1% SDS) were systemically administered at the indicated doses in a volume of 10 mL/kg each day for 5 days and starting 1 day before TNBS.\nData are expressed as the mean % effect. Statistical significance was assessed using t-test for comparison between naive and inflamed rats, and one-way ANOVA followed by post-hoc comparison test for overall drug effectiveness. A difference between groups is considered significant with a p value of <0.05. *, p<0.05; **, p<0.01; ***, p<0.001 vs. vehicle."}}, "note": "Marks after values point to notes of the source that are not given here."}
{"compound": "Cc1nc(C(=O)N2CCN(C(=O)c3cn4nc(-c5ccc(F)cc5)cc(C(C)(C)C)c4n3)C(C)(C)C2)n[nH]1", "note": "[Compound I-343, (8-(tert-butyl)-6-(4-fluorophenyl)imidazo[1,2-b]pyridazin-2-yl)(2,2-dimethyl-4-(5-methyl-1H-1,2,4-triazole-3-carbonyl)piperazin-1-yl)methanone]", "values": [{"measurement": "IC50", "setting": "[1]", "result": 1110, "unit": "nM"}, {"measurement": "clearance", "setting": "[2]; intravenous 0.5 to 1 mg/kg, read-out: Clp", "result": 3.39, "unit": "mL/min/kg"}, {"measurement": "Vd", "setting": "[2]; intravenous, read-out: Vss", "result": 1.65, "unit": "L/kg"}, {"measurement": "bioavailability", "setting": "[2]; oral by gavage", "result": 62, "unit": "%"}, {"measurement": "half-life", "setting": "[2]; read-out: T ½ (converted)", "result": 422, "unit": "min"}, {"measurement": "% improvement in Disease activity scores", "setting": "TNBS-induced colitis; dose 15 mg/kg each day for 5 days starting 1 day before TNBS", "result": 24, "unit": "%"}, {"measurement": "% improvement in Disease activity scores", "setting": "TNBS-induced colitis; dose 50 mg/kg each day for 5 days starting 1 day before TNBS", "result": "33* %"}, {"measurement": "% improvement in Disease activity scores", "setting": "TNBS-induced colitis; dose 150 mg/kg each day for 5 days starting 1 day before TNBS", "result": "62*** %"}]}
